According to PubChem BioAssay (NCI):
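Cultured in 96-well plates, cells were exposed to test compound for 48 hours across five concentrations. Here, GI50 denotes the concentration required for 50% inhibition of growth. TGI marks complete inhibition of growth.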

Tests used:
Assay in all cases: DTP human tumour cell line panel, 48 h
[1] = test system: MDA-MB-435
[2] = test system: SF-268 CNS
[3] = test system: UACC-257 melanoma
[4] = test system: HOP-62 NSCLC
[5] = test system: RXF 393 renal
[6] = test system: SK-MEL-5 melanoma
[7] = test system: RPMI-8226 leukemia
[8] = test system: SK-MEL-28 melanoma
[9] = test system: NCI-H226 lung
[10] = test system: TK-10 renal

Structure (SMILES)	TGI [1]	TGI [2]	TGI [3]	TGI [4]	TGI [5]	TGI [6]	TGI [7]	TGI [8]	TGI [9]	TGI [10]	GI50 [1]	GI50 [9]	GI50 [2]	GI50 [3]	GI50 [4]	GI50 [5]	GI50 [10]	GI50 [6]	GI50 [7]	GI50 [8]
O=C1C=CC(=O)c2c1nc(CBr)[nH]c2=O	87.4 µM	> 100 µM	> 100 µM	> 100 µM	> 100 µM	> 100 µM	> 100 µM	> 100 µM	–	–	–	–	–	–	–	–	–	–	–	–
CSc1nc(SC)c2c(C)cn(COCCOC(=O)c3ccccc3)c2n1	> 100 µM	> 100 µM	–	> 100 µM	> 100 µM	> 100 µM	> 100 µM	> 100 µM	> 100 µM	> 100 µM	–	–	–	–	–	–	–	–	–	–
CSc1ccc(C(=O)/C=C/c2ccc(Cl)cc2Cl)cc1	88.3 µM	48.9 µM	91.4 µM	37.5 µM	36.2 µM	59 µM	37.7 µM	–	82.9 µM	52.9 µM	26.3 µM	26 µM	20.8 µM	24 µM	19.6 µM	16.4 µM	20.9 µM	21900 nM	14.7 µM	–
O=C(C(=CN1CCN(C(=O)c2ccco2)C1=S)C(=O)c1ccccc1)c1ccccc1	18.7 µM	–	21.4 µM	44.2 µM	14.8 µM	19.5 µM	> 50 µM	> 50 µM	–	22.1 µM	7.24 µM	–	–	11.7 µM	15.9 µM	5.84 µM	6.87 µM	10900 nM	8.41 µM	17.8 µM
O=C1C(Cl)=C(NCCCN(CCCNC2=C(Cl)C(=O)c3ccccc3C2=O)C2=C(Cl)C(=O)c3ccccc3C2=O)C(=O)c2ccccc21	3.26 µM	18.8 µM	–	42.3 µM	22.5 µM	2.43 µM	> 100 µM	4.53 µM	35.1 µM	36.9 µM	1.74 µM	17.3 µM	2.76 µM	–	3.8 µM	10.7 µM	17.9 µM	1180 nM	3.8 µM	2.15 µM
CN1CCN(c2ccc(NC3=CC(=O)c4ncncc4C3=O)cc2)CC1	0.35 µM	5.73 µM	0.357 µM	–	2.61 µM	0.871 µM	0.75 µM	3.08 µM	3.47 µM	3.81 µM	0.191 µM	1.51 µM	1.77 µM	0.177 µM	–	1.29 µM	2.01 µM	302 nM	0.261 µM	1.46 µM
N#CC1=C(N)OC2=C(CCOc3c2ccc2ccccc32)C1c1ccc(Br)cc1 (centres undefined)	61.2 µM	> 100 µM	–	> 100 µM	80.9 µM	–	40.8 µM	> 100 µM	–	61.6 µM	16 µM	–	27.8 µM	–	56.6 µM	22.8 µM	21.6 µM	–	13.5 µM	61.5 µM
CC1=C(C(=O)Nc2ccc(Cl)c(Cl)c2)C(c2cccc(Cl)c2)NC(=S)N1 (centres undefined)	45.1 µM	41.8 µM	–	19.2 µM	23.6 µM	4.32 µM	> 50 µM	> 50 µM	–	> 50 µM	14 µM	–	16.5 µM	–	10.3 µM	9.63 µM	17.7 µM	2000 nM	23 µM	15.6 µM
Cc1c(C(N)=O)sc2nc(C)n(/N=c3\scc(-c4ccccc4)n3Cc3ccccc3)c(=O)c12	12.5 µM	> 100 µM	24.3 µM	9.47 µM	–	3.75 µM	> 100 µM	> 100 µM	67.9 µM	> 100 µM	2.89 µM	3.72 µM	4 µM	3.56 µM	2.82 µM	–	3.78 µM	1810 nM	13.9 µM	3.56 µM
Clc1ccc(-c2nc(NCc3ccco3)c3ccccc3n2)c(Cl)c1	33.7 µM	75.3 µM	–	34.7 µM	43.1 µM	30 µM	81.9 µM	> 100 µM	> 100 µM	7.1 µM	16.1 µM	20.7 µM	32.3 µM	–	15.8 µM	20.4 µM	2.38 µM	13900 nM	5.64 µM	24.5 µM
CC/C=C\C[C@H]1C/C=C2/C(=O)C(Cl)=C[C@@H]2C/C=C\CCCC(=O)O1	1.43 µM	2.39 µM	–	1.31 µM	0.802 µM	0.759 µM	0.492 µM	1.15 µM	1.56 µM	1.41 µM	0.169 µM	0.524 µM	0.496 µM	–	0.49 µM	0.4 µM	0.597 µM	379 nM	0.0819 µM	0.46 µM
C[C@]12CCC(=O)C[C@@H]1CC[C@@H]1[C@@H]2CC[C@]2(C)[C@@H](OC(=O)N(CCCl)N=O)CC[C@@H]12	18.1 µM	8.85 µM	8.58 µM	14.1 µM	–	6.16 µM	6.89 µM	23 µM	30.4 µM	27.7 µM	1.07 µM	11.9 µM	0.0983 µM	1.14 µM	1.75 µM	–	3.85 µM	1050 nM	2.02 µM	6.43 µM
